Test results from publication PMC6540285, “Evaluation of Protein Kinase Inhibitors with PLK4 Cross-Over Potential in a Pre-Clinical Model of Cancer” (International Journal of Molecular Sciences, 2019).

Tests used:
CAMKK1 (CAMKKA) = CAMKK1 (CAMKKA) (Homo sapiens, UniProt Q8N5S9); test: SelectScreen kinase profiling, LanthaScreen binding
DDR2 = DDR2 (Homo sapiens, UniProt Q16832); test: as above; conditions: DDR2, 10 µM
GRK4 = GRK4 (Homo sapiens, UniProt P32298); test: SelectScreen kinase profiling, ZLYTE; type: biochemical; conditions: GRK4, 10 µM
P450 2B6 = P450 2B6 (Homo sapiens, UniProt P20813); test: SelectScreen P450 Vivid biochemical assay; conditions: 10000nM; substrate BOMCC
FRK (PTK5) = FRK (PTK5) (Homo sapiens, UniProt P42685); test: SelectScreen kinase profiling, ZLYTE; type: biochemical
MYO3A (MYO3 alpha) = MYO3A (MYO3 alpha) (Homo sapiens, UniProt Q8NEV4); test: SelectScreen kinase profiling, LanthaScreen binding
PAK6 = PAK6 (Homo sapiens, UniProt Q9NQU5); test: SelectScreen kinase profiling, ZLYTE; type: biochemical; conditions: PAK6, 10 µM
Sequence of PAK6 (Q9NQU5 whole entry): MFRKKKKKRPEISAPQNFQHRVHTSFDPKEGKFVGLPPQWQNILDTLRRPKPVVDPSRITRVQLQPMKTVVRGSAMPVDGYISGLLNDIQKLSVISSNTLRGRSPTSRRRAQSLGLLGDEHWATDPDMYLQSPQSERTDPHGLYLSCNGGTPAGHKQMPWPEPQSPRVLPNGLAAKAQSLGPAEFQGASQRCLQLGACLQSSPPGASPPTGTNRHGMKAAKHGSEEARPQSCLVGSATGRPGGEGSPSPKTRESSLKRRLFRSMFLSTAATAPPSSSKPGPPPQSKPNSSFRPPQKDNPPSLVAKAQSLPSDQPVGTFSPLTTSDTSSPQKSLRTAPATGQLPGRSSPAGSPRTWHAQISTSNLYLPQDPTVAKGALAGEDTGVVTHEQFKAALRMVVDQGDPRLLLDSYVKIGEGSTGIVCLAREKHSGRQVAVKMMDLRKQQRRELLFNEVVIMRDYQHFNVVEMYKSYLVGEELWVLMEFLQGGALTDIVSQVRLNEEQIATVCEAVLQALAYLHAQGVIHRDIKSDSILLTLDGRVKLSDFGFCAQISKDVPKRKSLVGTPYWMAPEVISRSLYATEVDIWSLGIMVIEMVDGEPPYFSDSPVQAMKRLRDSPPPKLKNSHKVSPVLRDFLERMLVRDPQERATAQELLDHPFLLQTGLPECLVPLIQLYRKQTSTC

HCK = HCK (Homo sapiens, UniProt P08631); test: SelectScreen kinase profiling, ZLYTE; type: biochemical
BRAF V599E = BRAF V599E (Homo sapiens, UniProt P15056, V600E); test: SelectScreen kinase profiling, ZLYTE; type: biochemical
MAPKAPK2 = MAPKAPK2 (Homo sapiens, UniProt P49137); test: SelectScreen kinase profiling, ZLYTE; type: biochemical; conditions: MAPKAPK2, 10 µM
SGK (SGK1) = SGK (SGK1) (Homo sapiens, UniProt O00141); test: SelectScreen kinase profiling, ZLYTE; type: biochemical
Sequence of SGK (SGK1) (O00141 whole entry): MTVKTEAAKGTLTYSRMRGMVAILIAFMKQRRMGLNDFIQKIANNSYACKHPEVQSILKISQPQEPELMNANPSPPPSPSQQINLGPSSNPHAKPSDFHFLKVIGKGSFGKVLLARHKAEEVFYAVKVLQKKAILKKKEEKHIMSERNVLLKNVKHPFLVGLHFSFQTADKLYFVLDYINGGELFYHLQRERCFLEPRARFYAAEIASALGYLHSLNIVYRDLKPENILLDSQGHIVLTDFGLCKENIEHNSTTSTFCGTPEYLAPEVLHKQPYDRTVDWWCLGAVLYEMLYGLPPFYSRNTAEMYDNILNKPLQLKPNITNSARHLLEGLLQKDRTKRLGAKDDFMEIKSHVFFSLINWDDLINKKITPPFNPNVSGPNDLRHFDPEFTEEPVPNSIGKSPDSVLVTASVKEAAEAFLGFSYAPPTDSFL

GAK = GAK (Homo sapiens, UniProt O14976); test: SelectScreen kinase profiling, LanthaScreen binding
RET Y791F = RET Y791F (Homo sapiens, UniProt P07949, Y791F); test: SelectScreen kinase profiling, ZLYTE; type: biochemical
P450 2C8 = P450 2C8 (Homo sapiens, UniProt P10632); test: SelectScreen P450 Vivid biochemical assay; conditions: 10000nM; substrate DBOMF
CDK1/cyclin B = CDK1/cyclin B (Homo sapiens, UniProt P06493); test: SelectScreen kinase profiling, ZLYTE; type: biochemical
Sequence of CDK1/cyclin B (P06493 whole entry): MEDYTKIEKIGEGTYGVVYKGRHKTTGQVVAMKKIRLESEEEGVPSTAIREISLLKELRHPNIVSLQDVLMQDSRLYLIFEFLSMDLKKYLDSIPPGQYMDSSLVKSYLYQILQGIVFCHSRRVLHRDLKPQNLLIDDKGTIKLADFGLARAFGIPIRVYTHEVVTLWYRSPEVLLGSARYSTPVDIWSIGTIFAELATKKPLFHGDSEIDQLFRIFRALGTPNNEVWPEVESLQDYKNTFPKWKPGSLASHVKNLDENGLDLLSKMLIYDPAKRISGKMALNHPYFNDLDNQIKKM
Sequence of CDK1/cyclin B (P14635 whole entry partner): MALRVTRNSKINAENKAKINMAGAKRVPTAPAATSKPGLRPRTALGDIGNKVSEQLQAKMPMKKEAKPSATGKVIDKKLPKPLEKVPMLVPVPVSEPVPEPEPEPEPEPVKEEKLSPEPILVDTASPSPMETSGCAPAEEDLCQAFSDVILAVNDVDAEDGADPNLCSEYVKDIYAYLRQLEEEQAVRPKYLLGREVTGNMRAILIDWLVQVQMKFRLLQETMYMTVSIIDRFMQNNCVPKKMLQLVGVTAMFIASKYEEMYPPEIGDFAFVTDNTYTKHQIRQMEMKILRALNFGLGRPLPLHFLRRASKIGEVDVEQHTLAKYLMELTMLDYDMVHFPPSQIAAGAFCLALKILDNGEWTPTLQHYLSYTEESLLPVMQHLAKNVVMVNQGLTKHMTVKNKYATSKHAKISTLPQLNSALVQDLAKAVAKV

LYN B = LYN B (Homo sapiens, UniProt P07948); test: SelectScreen kinase profiling, ZLYTE; type: biochemical
SRPK2 = SRPK2 (Homo sapiens, UniProt P78362); test: SelectScreen kinase profiling, ZLYTE; type: biochemical; conditions: SRPK2, 10 µM
FYN A = FYN A (Homo sapiens, UniProt P06241); test: SelectScreen kinase profiling, LanthaScreen binding
SPHK2 = SPHK2 (Homo sapiens, UniProt Q9NRA0); test: SelectScreen kinase profiling, Adapta; type: biochemical; conditions: SPHK2, 10 µM
IRAK1 = IRAK1 (Homo sapiens, UniProt P51617); test: SelectScreen kinase profiling, Adapta; type: biochemical; conditions: IRAK1, 10 µM
MAPK1 (ERK2) = MAPK1 (ERK2) (Homo sapiens, UniProt P28482); test: SelectScreen kinase profiling, ZLYTE; type: biochemical
RAF1 (cRAF) Y340D Y341D = RAF1 (cRAF) Y340D Y341D (Homo sapiens, UniProt P04049, Y340D/Y341D); test: SelectScreen kinase profiling, LanthaScreen binding
ACVR1 (ALK2) = ACVR1 (ALK2) (Homo sapiens, UniProt Q04771); test: as above
Sequence of ACVR1 (ALK2) (Q04771 21-509): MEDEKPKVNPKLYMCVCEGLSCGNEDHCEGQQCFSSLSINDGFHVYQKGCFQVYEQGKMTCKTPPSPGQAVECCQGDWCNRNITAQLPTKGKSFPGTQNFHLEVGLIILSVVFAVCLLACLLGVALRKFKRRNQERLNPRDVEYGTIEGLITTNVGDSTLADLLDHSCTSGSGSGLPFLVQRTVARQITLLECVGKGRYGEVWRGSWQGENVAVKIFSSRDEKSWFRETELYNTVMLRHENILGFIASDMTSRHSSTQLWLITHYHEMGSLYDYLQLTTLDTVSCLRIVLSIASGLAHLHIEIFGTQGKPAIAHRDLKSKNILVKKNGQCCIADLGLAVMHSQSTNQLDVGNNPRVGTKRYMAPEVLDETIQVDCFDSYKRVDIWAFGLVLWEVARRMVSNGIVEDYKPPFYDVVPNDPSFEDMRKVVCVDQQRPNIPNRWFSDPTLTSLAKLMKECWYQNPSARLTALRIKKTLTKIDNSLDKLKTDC

BRAF = BRAF (Homo sapiens, UniProt P15056); test: as above
FYN = FYN (Homo sapiens, UniProt P06241); test: SelectScreen kinase profiling, ZLYTE; type: biochemical
CDK3/cyclin E1 = CDK3/cyclin E1 (Homo sapiens, UniProt Q00526); test: SelectScreen kinase profiling, LanthaScreen binding; conditions: CDK3/cyclin E1, 10 µM
[1] = target: MAPK14 (p38 alpha) Direct (Homo sapiens, UniProt Q16539); test: SelectScreen kinase profiling, ZLYTE; type: biochemical
Sequence of MAPK14 (p38 alpha) Direct (Q16539 whole entry): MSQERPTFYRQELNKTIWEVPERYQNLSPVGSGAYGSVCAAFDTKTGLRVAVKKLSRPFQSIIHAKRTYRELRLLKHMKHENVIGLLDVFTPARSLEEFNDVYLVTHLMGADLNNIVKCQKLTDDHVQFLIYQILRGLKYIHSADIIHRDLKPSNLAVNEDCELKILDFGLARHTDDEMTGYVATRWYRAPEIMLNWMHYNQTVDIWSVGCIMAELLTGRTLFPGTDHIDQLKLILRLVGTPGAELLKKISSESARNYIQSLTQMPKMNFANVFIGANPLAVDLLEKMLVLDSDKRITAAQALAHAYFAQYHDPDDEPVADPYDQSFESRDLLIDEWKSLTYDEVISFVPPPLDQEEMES

ADRBK2 (GRK3) = ADRBK2 (GRK3) (Homo sapiens, UniProt P35626); test: SelectScreen kinase profiling, ZLYTE; type: biochemical
Sequence of ADRBK2 (GRK3) (P35626 whole entry): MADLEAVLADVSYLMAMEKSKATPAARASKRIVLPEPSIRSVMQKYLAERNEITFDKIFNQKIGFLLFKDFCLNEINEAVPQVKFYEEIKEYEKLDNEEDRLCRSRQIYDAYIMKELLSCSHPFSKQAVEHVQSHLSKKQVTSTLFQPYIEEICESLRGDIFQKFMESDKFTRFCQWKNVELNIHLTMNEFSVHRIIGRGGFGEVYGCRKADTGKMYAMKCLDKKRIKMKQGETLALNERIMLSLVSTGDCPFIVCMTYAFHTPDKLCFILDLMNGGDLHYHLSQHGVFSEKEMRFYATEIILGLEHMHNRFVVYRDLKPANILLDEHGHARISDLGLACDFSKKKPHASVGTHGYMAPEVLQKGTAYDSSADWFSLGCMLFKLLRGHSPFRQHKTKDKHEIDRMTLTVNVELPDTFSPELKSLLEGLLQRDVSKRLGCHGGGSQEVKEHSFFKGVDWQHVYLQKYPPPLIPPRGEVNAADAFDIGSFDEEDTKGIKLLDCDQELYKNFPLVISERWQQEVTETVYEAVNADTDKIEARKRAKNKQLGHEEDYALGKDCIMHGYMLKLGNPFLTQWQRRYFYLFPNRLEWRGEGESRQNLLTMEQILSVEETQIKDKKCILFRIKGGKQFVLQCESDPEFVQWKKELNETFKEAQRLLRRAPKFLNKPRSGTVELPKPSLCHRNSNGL

MYLK2 (skMLCK) = MYLK2 (skMLCK) (Homo sapiens, UniProt Q9H1R3); test: SelectScreen kinase profiling, ZLYTE; type: biochemical
PRKACG (PRKAC gamma) = PRKACG (PRKAC gamma) (Homo sapiens, UniProt P22612); test: SelectScreen kinase profiling, LanthaScreen binding
Sequence of PRKACG (PRKAC gamma) (P22612 whole entry): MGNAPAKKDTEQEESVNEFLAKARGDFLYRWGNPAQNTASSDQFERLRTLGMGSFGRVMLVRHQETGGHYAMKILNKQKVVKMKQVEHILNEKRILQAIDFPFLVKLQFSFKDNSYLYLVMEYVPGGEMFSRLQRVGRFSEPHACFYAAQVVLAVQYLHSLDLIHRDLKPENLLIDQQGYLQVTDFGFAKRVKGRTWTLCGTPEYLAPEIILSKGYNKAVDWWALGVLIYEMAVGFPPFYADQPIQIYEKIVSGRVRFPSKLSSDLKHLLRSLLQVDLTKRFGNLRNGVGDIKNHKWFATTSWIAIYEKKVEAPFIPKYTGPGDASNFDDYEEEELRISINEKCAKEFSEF

MAP2K4 (MEK4) = MAP2K4 (MEK4) (Homo sapiens, UniProt P45985); test: as above
CSNK2A1 (CK2 alpha 1) = CSNK2A1 (CK2 alpha 1) (Homo sapiens, UniProt P68400); test: SelectScreen kinase profiling, ZLYTE; type: biochemical
Sequence of CSNK2A1 (CK2 alpha 1) (P68400 whole entry): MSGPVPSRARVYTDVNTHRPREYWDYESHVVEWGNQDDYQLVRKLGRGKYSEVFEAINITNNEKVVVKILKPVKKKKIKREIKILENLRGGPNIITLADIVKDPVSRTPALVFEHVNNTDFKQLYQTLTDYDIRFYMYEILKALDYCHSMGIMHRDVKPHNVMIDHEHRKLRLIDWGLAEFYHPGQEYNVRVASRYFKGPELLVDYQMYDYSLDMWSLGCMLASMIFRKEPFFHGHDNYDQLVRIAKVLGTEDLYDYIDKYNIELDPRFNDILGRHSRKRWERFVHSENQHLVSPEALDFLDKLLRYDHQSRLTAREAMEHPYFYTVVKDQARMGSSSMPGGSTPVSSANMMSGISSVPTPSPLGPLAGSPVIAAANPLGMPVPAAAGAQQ

MAP2K2 (MEK2) = MAP2K2 (MEK2) (Homo sapiens, UniProt P36507); test: SelectScreen kinase profiling, ZLYTE; type: biochemical
NEK1 = NEK1 (Homo sapiens, UniProt Q96PY6); test: SelectScreen kinase profiling, ZLYTE; type: biochemical; conditions: NEK1, 10 µM
ABL1 F317I = ABL1 F317I (Homo sapiens, UniProt P00519, F317I); test: SelectScreen kinase profiling, ZLYTE; type: biochemical
MAP3K8 (COT) = MAP3K8 (COT) (Homo sapiens, UniProt P41279); test: SelectScreen kinase profiling, ZLYTE; type: biochemical
RET V804E = RET V804E (Homo sapiens, UniProt P07949, V804E); test: SelectScreen kinase profiling, ZLYTE; type: biochemical
SIK3 = SIK3 (Homo sapiens, UniProt Q9Y2K2); test: SelectScreen kinase profiling, LanthaScreen binding; conditions: SIK3, 10 µM
CDK6/cyclin D1 = CDK6/cyclin D1 (Homo sapiens, UniProt Q00534); test: SelectScreen kinase profiling, Adapta; type: biochemical; conditions: CDK6/cyclin D1, 10 µM
PIP5K1C = PIP5K1C (Homo sapiens, UniProt O60331); test: SelectScreen kinase profiling, Adapta; type: biochemical
Sequence of PIP5K1C (O60331 whole entry): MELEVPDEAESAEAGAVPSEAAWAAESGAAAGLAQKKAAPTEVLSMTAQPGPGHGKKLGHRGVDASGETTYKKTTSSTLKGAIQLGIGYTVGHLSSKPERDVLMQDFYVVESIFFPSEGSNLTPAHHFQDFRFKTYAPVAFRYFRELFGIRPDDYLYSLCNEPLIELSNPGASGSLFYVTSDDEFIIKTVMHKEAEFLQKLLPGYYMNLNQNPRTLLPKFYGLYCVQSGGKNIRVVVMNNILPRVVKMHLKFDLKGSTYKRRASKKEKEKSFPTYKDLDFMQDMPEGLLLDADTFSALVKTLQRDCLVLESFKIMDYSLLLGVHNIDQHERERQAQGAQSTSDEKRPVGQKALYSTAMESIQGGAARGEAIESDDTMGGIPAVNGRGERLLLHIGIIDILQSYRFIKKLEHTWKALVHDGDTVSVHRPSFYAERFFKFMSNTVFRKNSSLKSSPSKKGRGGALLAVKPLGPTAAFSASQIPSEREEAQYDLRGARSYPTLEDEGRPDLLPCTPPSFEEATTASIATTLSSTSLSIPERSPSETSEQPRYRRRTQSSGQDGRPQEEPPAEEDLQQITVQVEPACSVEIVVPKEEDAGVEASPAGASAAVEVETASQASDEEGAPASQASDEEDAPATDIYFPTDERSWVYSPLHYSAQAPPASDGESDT

O=C(c1ccc(/C=C/c2n[nH]c3ccccc23)cc1)N1CCNCC1 [KW-2449]
inhibition at 10 µM (CAMKK1 (CAMKKA)): 69% | inhibition at 10 µM (DDR2): 53% | inhibition at 10 µM (GRK4): 61% | % Inhibition 2B6 BOMCC (P450 2B6): 48% | inhibition at 10 µM (FRK (PTK5)): 90% | inhibition at 10 µM (MYO3A (MYO3 alpha)): 59% | inhibition at 10 µM (PAK6): 60% | inhibition at 10 µM (HCK): 90% | inhibition at 10 µM (BRAF V599E): 60% | inhibition at 10 µM (MAPKAPK2): 28% | inhibition at 10 µM (SGK (SGK1)): 98% | inhibition at 10 µM (GAK): 67% | inhibition at 10 µM (RET Y791F): 100% | % Inhibition 2C8 DBOMF (P450 2C8): 33% | inhibition at 10 µM (CDK1/cyclin B): 88% | inhibition at 10 µM (LYN B): 94% | inhibition at 10 µM (SRPK2): 32% | inhibition at 10 µM (FYN A): 72% | inhibition at 10 µM (SPHK2): 7% | inhibition at 10 µM (IRAK1): 99% | inhibition at 10 µM (MAPK1 (ERK2)): 45% | inhibition at 10 µM (RAF1 (cRAF) Y340D Y341D): 0% | inhibition at 10 µM (ACVR1 (ALK2)): 94% | inhibition at 10 µM (BRAF): -1% | inhibition at 10 µM (FYN): 94% | inhibition at 10 µM (CDK3/cyclin E1): 48% | inhibition at 10 µM [1]: 44% | inhibition at 10 µM (ADRBK2 (GRK3)): 31% | inhibition at 10 µM (MYLK2 (skMLCK)): 100% | inhibition at 10 µM (PRKACG (PRKAC gamma)): 18% | inhibition at 10 µM (MAP2K4 (MEK4)): 79% | inhibition at 10 µM (CSNK2A1 (CK2 alpha 1)): 18% | inhibition at 10 µM (MAP2K2 (MEK2)): 75% | inhibition at 10 µM (NEK1): 67% | inhibition at 10 µM (ABL1 F317I): 94% | inhibition at 10 µM (MAP3K8 (COT)): 54% | inhibition at 10 µM (RET V804E): 94% | inhibition at 10 µM (SIK3): -1% | inhibition at 10 µM (CDK6/cyclin D1): 82% | inhibition at 10 µM (PIP5K1C): 7%
